From US20100028889A1, “COMPANION DIAGNOSTIC ASSAYS FOR CANCER THERAPY” (ABBOTT LABORATORIES, priority 2006, published 2010)
Read-outs that look alike come from different tables or passages of the source.

Legend:
SCLC cell lines = assay: categorisation of the SCLC cell line panel by EC50; assay type: cell-based, human; settings: EC50 less than or equal to 4.1 μM
Procedure: (§1) Cells were treated at 10,000 or 50,000 cells per well for adherent or suspension cells, respectively, in 96-well microtiter plates in the presence of 10% human serum for 48 hours with or without ABT-263, in a humidified chamber with 5% CO2. ABT-263 was synthesized as previously described in Tse, C., Shoemaker, A. R., Adickes, J., et al., “ABT-263: a potent and orally bioavailable Bcl-2 family inhibitor,” Cancer Res 2008; 68: 3421-3428; and Oltersdorf, T., Elmore, S. W., Shoemaker, A. R., et al., “An inhibitor of Bcl-2 family proteins induces regression of solid tumours,” Nature 2005; 435: 677-681, and cell cytotoxicity EC50 values were assessed using CellTiter Glo (Promega, Madison Wis.).
o divide the training set cell lines into sensitive and resistant categories, a bivariate fit curve was generated for the ABT-263 EC50 versus rank and fitted with a smoothing spline (lambda=1), and the maximum increase in the slope was approximately 5 μM for both sets. […]
Division of cell lines into sensitive and resistant categories. […] To identify gene expression patterns that can predict sensitivity to ABT-263, as well as genes that might contribute to resistance to treatment, RNA expression profiles for a panel of SCLC cell lines were determined, as well as a panel of leukemia and lymphoma cell lines. […]

Rec-1 = assay: cell cytotoxicity EC50, CellTiter Glo, Mantle Cell Lymphoma cell line, Rec-1 sub-clone batch listed first; assay type: cell-based, human
Procedure: (§2) The SCLC and leukemia/lymphoma cell lines listed below were obtained from the American Type Culture Collection (Manassas, Va.), Deutsche Sammlung von Mikroorganismen und Zellkulturen (DSMZ, Braunsweig, Germany), or were the generous gift from Dr. Louis Staudt (National Cancer Institute) and were cultured as described in Tse, C., Shoemaker, A. R., Adickes, J., et al., “ABT-263: a potent and orally bioavailable Bcl-2 family inhibitor,” Cancer Res 2008; 68: 3421-3428; and Tahir, S. K., Yang, X., Anderson, M. G., et al., “Influence of Bcl-2 family members on the cellular response of small-cell lung cancer cell lines to ABT-737,” Cancer Res 2007; 67: 1176-1183.
as §1

NCI-H1688 = assay: cell cytotoxicity EC50, CellTiter Glo, SCLC cell line; assay type: cell-based, human
Procedure: as §2, §1

NCI-H510 = assay: as above; assay type: cell-based, human
Procedure: as §2, §1

NCI-H740 = assay: as above; assay type: cell-based, human
Procedure: as §2, §1

NCI-H1836 = assay: as above; assay type: cell-based, human
Procedure: as §2, §1

SW 1271 = assay: as above; assay type: cell-based, human
Procedure: as §2, §1

NCI-H1672 = assay: as above; assay type: cell-based, human
Procedure: as §2, §1

NCI-1048 = assay: as above; assay type: cell-based, human
Procedure: as §2, §1

NCI-211 = assay: as above; assay type: cell-based, human
Procedure: as §2, §1

NCI-H2081 = assay: as above; assay type: cell-based, human
Procedure: as §2, §1

NCI-H1963 = assay: as above; assay type: cell-based, human
Procedure: as §2, §1

NCI-H1105 = assay: as above; assay type: cell-based, human
Procedure: as §2, §1

NCI-H187 = assay: as above; assay type: cell-based, human
Procedure: as §2, §1

NCI-H345 = assay: as above; assay type: cell-based, human
Procedure: as §2, §1

NCI-H196 = assay: as above; assay type: cell-based, human
Procedure: as §2, §1

RS4; 11 = assay: cell cytotoxicity EC50, CellTiter Glo, leukemia/lymphoma cell line; assay type: cell-based, human
Procedure: as §2, §1

[1] = test system: diverse panel of human cancer cell lines; settings: cited from earlier work
[2] = 10% human serum, 48 hours, read-out: EC50
[3] = Homo sapiens, read-out: Response Designation

In the case of CC1(C)CCC(c2ccc(Cl)cc2)=C(CN2CCN(c3ccc(C(=O)NS(=O)(=O)c4ccc(N[C@H](CCN5CCOCC5)CSc5ccccc5)c(S(=O)(=O)C(F)(F)F)c4)cc3)CC2)C1 [ABT-263, N-(4-(4-((2-(4-chlorophenyl)-5,5-dimethyl-1-cyclohex-1-en-1-yl)methyl)piperazin-1-yl)benzoyl)-4-(((1R)-3-(morpholin-4-yl)-1-((phenylsulfanyl)methyl)propyl)amino)-3-((trifluoromethyl)sulfonyl)benzenesulfonamide], the “SCLC cell lines categorized as being sensitive” value (SCLC cell lines) is reported as 26 out of 36, the EC50 (Rec-1; Homo sapiens, Rec1, read-out: Response Designation) is reported as no more than 4.8 µM and the EC50 (Rec-1; Rec1, 10% human serum, 48 hours, read-out: EC50) is reported as 0.034 µM. It also gave an EC50 (NCI-H1688; [2]) of 8.07 µM, an EC50 (NCI-H1688; [3]) greater than 4.1 µM and an EC50 (NCI-H510; [2]) of 1.22 µM. For the same compound, the EC50 (NCI-H510; [3]) was no more than 4.1 µM, the EC50 (NCI-H740; [2]) was greater than 10 µM and the EC50 (NCI-H740; [3]) was greater than 4.1 µM. The EC50 (NCI-H1836; [2]) was 0.4 µM, the EC50 (NCI-H1836; [3]) was no more than 4.1 µM and the EC50 (SW 1271; Homo sapiens, SW1271, read-out: Response Designation) was greater than 4.1 µM. It also gave an EC50 (SW 1271; SW1271, 10% human serum, 48 hours, read-out: EC50) of 33.9 µM, an EC50 (NCI-H1672; [2]) of 0.7 µM and an EC50 (NCI-H1672; [3]) of no more than 4.1 µM. For the same compound, the EC50 (NCI-1048; [2]) was 2.86 µM, the EC50 (NCI-1048; [3]) was no more than 4.1 µM and the EC50 (NCI-211; [2]) was 0.41 µM. It also gave an EC50 (NCI-211; [3]) of no more than 4.1 µM, an EC50 (NCI-H2081; [2]) of 12 µM and an EC50 (NCI-H2081; [3]) greater than 4.1 µM. The EC50 (NCI-H1963; [2]) was 0.18 µM, the EC50 (NCI-H1963; [3]) was no more than 4.1 µM and the EC50 (NCI-H1105; [2]) was 0.7 µM. It also gave an EC50 (NCI-H1105; [3]) of no more than 4.1 µM, an EC50 (NCI-H187; [2]) of 0.21 µM and an EC50 (NCI-H187; [3]) of no more than 4.1 µM. For the same compound, the EC50 (NCI-H345; [2]) was 2.16 µM, the EC50 (NCI-H345; [3]) was no more than 4.1 µM and the EC50 (NCI-H196; [2]) was 38.6 µM. The EC50 (NCI-H196; [3]) was greater than 4.1 µM, the EC50 (RS4; 11; Homo sapiens, RS4;11, read-out: Response Designation) was no more than 4.8 µM and the EC50 (RS4; 11; RS4, 11, 10% human serum, 48 hours, read-out: EC50) was 0.095 µM.

For CN(C)CC[C@H](CSc1ccccc1)Nc1ccc(S(=O)(=O)NC(=O)c2ccc(N3CCN(Cc4ccccc4-c4ccc(Cl)cc4)CC3)cc2)cc1[N+](=O)[O-] [ABT-737, N-(4-(4-((4′-chloro(1,1′-biphenyl)-2-yl)methyl)piperazin-1-yl)benzoyl)-4-(((1R)-3-(dimethylamino)-1-((phenylsulfanyl)methyl)propyl)amino)-3-nitrobenzenesulfonamide], the “potency across a diverse panel of human cancer cell lines” value [1] is given as “selective potency against SCLC and lymphoma cell lines”.
